Values joined by “and” are separate entries in the source; they are usually repeats but may differ in a detail not shown here. Identical values can stand only once. Like-named read-outs stand apart in the source and are kept apart here.
Assays:
P-gp = experiment: Bidirectional permeability measurement in Caco-2 cells; type: in vitro ADME; details: human, Caco-2, pH 7.4, with zosuquidar 5 µM
Procedure, shortened: (§1)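 Compound quantified by LC-MS/MS in samples taken over up to 2 h across 14–21-day Caco-2 monolayers, after 24 h preincubation with 1 µM compound. Runs done without and with 5 µM zosuquidar to probe P-gp. Efflux ratio is the quotient of duplicate-mean Papp,BA over Papp,AB.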

[1] = as above; type: in vitro ADME; details: human
Procedure, shortened: as §1

SMARCA2 = SMARCA2 (Homo sapiens, UniProt P51531); experiment: SMARCA2 capillary electrophoresis protein assay in other cell lines (A549, NCI-H1568, HCT116, LU99, HCC-364, HCT-15, HCC4006, SK-N-AS); type: cell-based; parameters: endogenous in cells; host or cells: RKO, NCI-H1568, A549, HCT116, LU99, HCC-364, HCT-15, HCC4006, SK-N-AS; details: for LogEC50: log10 of concentration in mol/l
Method: 130,000–200,000 cells were seeded in 24-well plates and incubated until settled down or overnight. Compounds were dissolved in DMSO and added to cells in indicated concentrations using a digital dispenser following an optional media change. Cells were incubated for 4 or 18 h as indicated. For SMARCA2/4 half-life determination, 150,000 or 200,000 cells were seeded in 24-well plates. The next day, 50 µg/ml cycloheximide (Sigma) was added and cells were incubated for 1–24 h. For SMARCA2/4 re-synthesis measurements, 200,000 cells were seeded in 24-well plates. The next day, 100 nM compound 6 was added for 4 h to degrade SMARCA2/4, and a sample was taken as baseline for normalisation. To allow re-synthesis, a VHL binder (compound 32, 25 or 50 µM) was then added for 3 or 24 h. Medium was removed, cells were washed with PBS and lysed with 80 µl Lysis Buffer (MSD Tris Lysis Buffer (#R60TX-2) + Halt Inhibitor Cocktail (100x) + Benzonase 0.5 µL/ml). Samples were frozen at −80 °C and thawed at room temperature before use. Samples were transferred to a V-bottom plate and insoluble debris was pelleted by centrifugation for 5 min at maximum speed. The supernatant was transferred to a fresh plate. Master Mix and Ladder were prepared according to manufacturer’s instructions for 12–230 kDa Wes Separation Module, 8 × 25 capillary cartridges, Protein Simple #SM-W004 with Anti-Rabbit Detection Module for Wes, Peggy Sue or Sally Sue, Protein Simple #DM-001. 4.8 µl lysate were mixed with 1.2 µl Master Mix to achieve a protein concentration of ~0.5 µg/µl. Antibodies were diluted in Antibody Diluent II (SMARCA2 Sigma #HPA029981 RRID:AB_10602406 1:25–100, SMARCA4 Cell Signalling #49360 clone D1Q7F RRID:AB_2728743 1:15–120 or Abcam #ab110641 clone EPNCIR111A RRID:AB_10861578 1:60, GAPDH Abcam #ab9485 RRID:AB_307275 1:250). Wes plates were prepared and run according to manufacturer’s instructions. Proteins were quantified with accompanying Compass Software. SMARCA2/4 protein levels were normalised to GAPDH. […] Where applicable, curves were fitted using a 4-parametric logistic model.

[2] = HCC4006_SM2, four-parameter fit
[3] = HCC-364_SM2, four-parameter fit

Sequence of SMARCA2 (P51531 whole entry): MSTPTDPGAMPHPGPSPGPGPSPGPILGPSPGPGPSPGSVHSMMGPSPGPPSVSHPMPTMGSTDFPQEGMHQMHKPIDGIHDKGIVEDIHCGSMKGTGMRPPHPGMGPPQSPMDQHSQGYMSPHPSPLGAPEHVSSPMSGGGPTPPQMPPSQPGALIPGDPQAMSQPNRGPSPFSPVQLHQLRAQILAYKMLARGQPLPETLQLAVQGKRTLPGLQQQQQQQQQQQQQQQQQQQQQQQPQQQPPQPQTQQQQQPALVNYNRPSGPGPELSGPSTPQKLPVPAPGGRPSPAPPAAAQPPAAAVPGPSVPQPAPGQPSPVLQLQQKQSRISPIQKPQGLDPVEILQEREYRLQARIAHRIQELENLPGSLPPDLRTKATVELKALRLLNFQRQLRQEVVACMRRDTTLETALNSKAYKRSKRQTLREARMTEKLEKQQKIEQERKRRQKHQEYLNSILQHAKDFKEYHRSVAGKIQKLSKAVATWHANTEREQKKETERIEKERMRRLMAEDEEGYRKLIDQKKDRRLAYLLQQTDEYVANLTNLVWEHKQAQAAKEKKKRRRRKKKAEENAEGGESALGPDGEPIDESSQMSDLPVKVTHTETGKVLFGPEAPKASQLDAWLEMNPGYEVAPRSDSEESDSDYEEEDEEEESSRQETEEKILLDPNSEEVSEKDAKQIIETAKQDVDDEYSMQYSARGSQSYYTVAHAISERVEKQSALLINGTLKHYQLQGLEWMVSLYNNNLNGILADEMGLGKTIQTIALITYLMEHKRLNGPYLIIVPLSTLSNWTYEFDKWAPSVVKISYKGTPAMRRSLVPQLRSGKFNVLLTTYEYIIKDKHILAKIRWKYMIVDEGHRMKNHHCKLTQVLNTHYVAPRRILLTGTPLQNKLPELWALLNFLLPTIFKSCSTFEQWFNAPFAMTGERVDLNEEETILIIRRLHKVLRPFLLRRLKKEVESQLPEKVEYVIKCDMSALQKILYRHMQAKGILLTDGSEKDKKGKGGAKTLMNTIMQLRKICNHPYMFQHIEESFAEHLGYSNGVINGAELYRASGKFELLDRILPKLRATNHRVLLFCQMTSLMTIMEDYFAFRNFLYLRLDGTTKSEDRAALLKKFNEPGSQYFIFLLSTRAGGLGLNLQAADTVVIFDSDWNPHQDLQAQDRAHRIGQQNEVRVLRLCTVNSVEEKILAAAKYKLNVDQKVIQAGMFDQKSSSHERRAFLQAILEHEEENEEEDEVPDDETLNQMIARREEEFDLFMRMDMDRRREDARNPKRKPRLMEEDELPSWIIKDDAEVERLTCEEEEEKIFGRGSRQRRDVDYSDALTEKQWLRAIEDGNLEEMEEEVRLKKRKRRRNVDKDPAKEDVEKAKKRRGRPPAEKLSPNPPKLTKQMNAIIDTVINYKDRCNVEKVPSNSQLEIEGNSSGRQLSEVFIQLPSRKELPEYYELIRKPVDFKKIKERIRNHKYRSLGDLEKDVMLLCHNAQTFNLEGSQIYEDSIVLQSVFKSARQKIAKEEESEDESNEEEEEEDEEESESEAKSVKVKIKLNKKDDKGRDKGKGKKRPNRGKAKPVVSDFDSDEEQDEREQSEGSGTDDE

Question: Which results are given for `Cc1ncsc1-c1ccc(C(CCC(C)CCN2CCC(c3ccc4c(c3)n(C3CCCC3)c3nc(=O)c5c(Br)cccc5n43)CC2)NC(=O)C2CC(O)CN2C(=O)C(NC(=O)C2(F)CC2)C(C)(C)C)cc1` (stereo not drawn) [ACBI2]?
Answer: Papp A→B at 1 µM (P-gp; Modified Caco-2 + PGPi (Zosuquidar), read-out: Modified Caco-2 + PGPi (Zosuquidar) Pab): 8 ± 4 ×10⁻⁶ cm/s; Papp B→A at 2 h, 1 µM (P-gp; Modified Caco-2, b to a, + PGPi (Zosuquidar), read-out: Modified Caco-2 Pba + PGPi (Zosuquidar)): 11 ×10⁻⁶ cm/s; Papp A→B at 1 µM ([1]; Caco-2, pH 7.4, Caco-2, read-out: Caco-2 Pab): 2 ± 0.2 ×10⁻⁶ cm/s; Papp A→B at 1 µM ([1]; Caco-2, pH 7.4, Modified Caco-2, read-out: Modified Caco-2 Pab): 9 ± 9 ×10⁻⁶ cm/s; Bottom (% protein remaining, four-parameter fit) (SMARCA2; A549, 4h): 4.929%; HillSlope (protein remaining) (SMARCA2; A549, 4h): -1.225; LogEC50 (protein remaining) (SMARCA2; A549, 4h): -8.097 log10(mol/l); Top (% protein remaining, four-parameter fit) (SMARCA2; A549, 4h): 100.9%; % protein remaining (SMARCA2; A549, 4h, conc 1.00001e-10 mol/l): 84.5708% and 85.2048%; % protein remaining (SMARCA2; A549, 4h, conc 1.52416e-10 mol/l): 108.644%; % protein remaining (SMARCA2; A549, 4h, conc 3.1623e-10 mol/l): 89.402% and 93.1131%; % protein remaining (SMARCA2; A549, 4h, conc 4.57247e-10 mol/l): 121.415%; % protein remaining (SMARCA2; A549, 4h, conc 1.00001e-9 mol/l): 110.304% and 110.867%; % protein remaining (SMARCA2; A549, 4h, conc 1.37174e-9 mol/l): 89.7364%; % protein remaining (SMARCA2; A549, 4h, conc 3.1623e-9 mol/l): 63.5379% and 69.9208%; % protein remaining (SMARCA2; A549, 4h, conc 4.11523e-9 mol/l): 69.7779%; % protein remaining (SMARCA2; A549, 4h, conc 1.00001e-8 mol/l): 46.41% and 40.9559%; % protein remaining (SMARCA2; A549, 4h, conc 1.23457e-8 mol/l): 53.3153%; % protein remaining (SMARCA2; A549, 4h, conc 3.1623e-8 mol/l): 21.5929% and 21.3671%; % protein remaining (SMARCA2; A549, 4h, conc 3.7037e-8 mol/l): 16.6414%; % protein remaining (SMARCA2; A549, 4h, conc 1.00001e-7 mol/l): 9.055% and 9.573%; % protein remaining (SMARCA2; A549, 4h, conc 1.11111e-7 mol/l): 6.719%; % protein remaining (SMARCA2; A549, 4h, conc 3.1623e-7 mol/l): 3.884% and 5.2896%; % protein remaining (SMARCA2; A549, 4h, conc 3.33333e-7 mol/l): 5.288%; % protein remaining (SMARCA2; A549, 4h, conc 1e-6 mol/l): 9.764%; % protein remaining (SMARCA2; A549, 4h, conc 1.00001e-6 mol/l): 2.893% and 6.667%; % protein remaining (SMARCA2; A549, 4h, conc 3.1623e-6 mol/l): 2.881% and 4.488%; DC50 (SMARCA2; A549, 4h, read-out: EC50 (protein remaining)): 8 nM; Bottom (% protein remaining, four-parameter fit) (SMARCA2; A549, 8h): 4.658%; HillSlope (protein remaining) (SMARCA2; A549, 8h): -1.748; LogEC50 (protein remaining) (SMARCA2; A549, 8h): -8.366 log10(mol/l); Top (% protein remaining, four-parameter fit) (SMARCA2; A549, 8h): 107%; % protein remaining (SMARCA2; A549, 8h, conc 1.52416e-10 mol/l): 110.756% and 87.6939%; % protein remaining (SMARCA2; A549, 8h, conc 4.57247e-10 mol/l): 98.1008% and 121.894%; % protein remaining (SMARCA2; A549, 8h, conc 1.37174e-9 mol/l): 100.189% and 99.1847%; % protein remaining (SMARCA2; A549, 8h, conc 3.7037e-8 mol/l): 13.1114% and 6.497%; % protein remaining (SMARCA2; A549, 8h, conc 1.11111e-7 mol/l): 4.666% and 4.638%; % protein remaining (SMARCA2; A549, 8h, conc 3.33333e-7 mol/l): 3.034% and 3.636%; % protein remaining (SMARCA2; A549, 8h, conc 1e-6 mol/l): 2.595% and 3.383%; % protein remaining (SMARCA2; A549, 8h, conc 3e-6 mol/l): 3.585% and 2.581%; DC50 (SMARCA2; A549, 8h, read-out: EC50 (protein remaining)): 4.31 nM; Bottom (% protein remaining, four-parameter fit) (SMARCA2; A549, 18h): 5.224%; HillSlope (protein remaining) (SMARCA2; A549, 18h): -3.553; LogEC50 (protein remaining) (SMARCA2; A549, 18h): -8.518 log10(mol/l); Top (% protein remaining, four-parameter fit) (SMARCA2; A549, 18h): 104.8%; % protein remaining (SMARCA2; A549, 18h, conc 1.52416e-10 mol/l): 87.6939%; % protein remaining (SMARCA2; A549, 18h, conc 4.57247e-10 mol/l): 121.894%; % protein remaining (SMARCA2; A549, 18h, conc 1.37174e-9 mol/l): 99.1847%; % protein remaining (SMARCA2; A549, 18h, conc 4.11523e-9 mol/l): 30.1189%; % protein remaining (SMARCA2; A549, 18h, conc 1.23457e-8 mol/l): 11.5462%; % protein remaining (SMARCA2; A549, 18h, conc 3.7037e-8 mol/l): 6.497%; % protein remaining (SMARCA2; A549, 18h, conc 1.11111e-7 mol/l): 4.638%; % protein remaining (SMARCA2; A549, 18h, conc 3.33333e-7 mol/l): 3.636%; % protein remaining (SMARCA2; A549, 18h, conc 1e-6 mol/l): 3.383%; % protein remaining (SMARCA2; A549, 18h, conc 3e-6 mol/l): 2.581%; DC50 (SMARCA2; A549, 18h, read-out: EC50 (protein remaining)): 3.03 nM; SMARCA2 degradation in sensitive cell lines (SMARCA2; A549 and NCI-H1568): rapid and complete degradation of SMARCA2; Bottom (best-fit value, % protein remaining) (SMARCA2; [2]): 15.27%; HillSlope (SMARCA2; [2]): -1.75; LogEC50 (SMARCA2; HCC4006_SM2): -7.779; DC50 (SMARCA2; HCC4006_SM2, protein degradation, four-parameter fit, read-out: EC50 (the source's name)): 16.6 nM; Bottom (best-fit value, % protein remaining) (SMARCA2; [3]): 10.4%; HillSlope (SMARCA2; [3]): -2.48; LogEC50 (SMARCA2; HCC-364_SM2): -8.138; DC50 (SMARCA2; HCC-364_SM2, protein degradation, four-parameter fit, read-out: EC50 (the source's name)): 7.28 nM; Bottom (% protein remaining, four-parameter fit) (SMARCA2; HCT116, SM2): 21.77%; HillSlope (protein remaining) (SMARCA2; HCT116, SM2): -1.136; Top (% protein remaining, four-parameter fit) (SMARCA2; HCT116, SM2): 121.9%; Bottom (best-fit value, % protein remaining) (SMARCA2; HCT-15_SM2, four-parameter fit): -16.7%; HillSlope (SMARCA2; HCT-15_SM2, four-parameter fit): -0.6998; LogEC50 (SMARCA2; HCT-15_SM2): -6.787; DC50 (SMARCA2; HCT-15_SM2, protein degradation, four-parameter fit, read-out: EC50 (the source's name)): 163 nM
